Results from US8784910B2, “Antimicrobial compositions” (Lonza Inc., priority 2002, dated 2014).

How the values were obtained:
Assay type in all cases: cell-based
[1] = test system: S. aureus (ATCC #6538), P. aeruginosa (ATCC #9027), and E. coli (ATCC #8739); assay: Mixed bacterial challenge of preserved anionic protein shampoo, pH 6.5 (Example 3); settings: 0.45% w/w in shampoo; for bacteria count Day 0: pH 6.5, Day 0; for bacteria count Day 7: pH 6.5, Day 7; for bacteria count Day 14: pH 6.5, Day 14; for bacteria count Day 28: pH 6.5, Day 28
Protocol: (§1) Each anionic shampoo sample in FIGS. 1-3 were tested as follows. A standardized mixed bacterial solution was prepared according to the following procedure. 3 agar stabs of S. aureus (ATCC #6538), P. aeruginosa (ATCC #9027), and E. coli (ATCC #8739) were separately incubated at about 35 EC for about 24 hours. Each stab was then washed with 3 mL of sterile 0.85% saline solution. The washes of the 3 stabs were pooled together to form an organism mixture. The absorbance of the organism mixture at 530 nm was adjusted to about 1.00 by adding saline. The spectrometer was calibrated with a saline blank. A 5 mL aliquot of the organism mixture was mixed together to produce the standardized mixed bacterial solution. Then, 40 g of each shampoo sample was inoculated with 0.2 mL of the standardized mixed bacterial solution and mixed. 1 g of the mixture was added to a sterile 20×150 mm screw cap test tube.
9 mL of sterile D/E neutralizer broth was added to the test tube and mixed to form a 10^−1 dilution. Serial dilutions were prepared through to a 10^−6 dilution with phosphate buffered water. The serial dilutions were plated onto Tryptic Soy Agar and incubated for 2 days at about 35 EC. […]
(§2) The anionic protein shampoo composition was comprised of 35% by weight of sodium lauryl ether sulfate; 25% by weight of triethanolamine lauryl sulfate; 3% by weight coconut diethanolamide (cocamide DEA); 1% by weight of hydrolyzed collagen, available as Polypro 5000™ from Hormel Foods of Austin, Minn.; and 36% by weight of deionized water.
The antimicrobial composition containing samples were prepared by mixing the appropriate amounts of the antimicrobial ingredients and the aforementioned anionic protein shampoo composition and heating the mixture to about 50 EC for about 15 minutes.
The pH of the shampoo was adjusted to 6.5. […]

[2] = test system: S. aureus (ATCC #6538), P. aeruginosa (ATCC #9027), and E. coli (ATCC #8739); assay: Mixed bacterial challenge of preserved anionic protein shampoo (Examples 4 and 7); settings: 1.0% (1%) by weight in shampoo; for S. aureus, P. aeruginosa, and E. coli Day 0: Day 0, Table 3; for S. aureus, P. aeruginosa, and E. coli Day 7: Day 7, Table 3; for S. aureus, P. aeruginosa, and E. coli Day 14: Day 14, Table 3
Protocol: as §1, with “Table 3 below was” for “FIGS. 1-3 were”
9 mL of sterile D/E neutralizer broth was added to the test tube and mixed to form a 10^−1 dilution. Serial dilutions were prepared through to a 10^−6 dilution with phosphate buffered water. The serial dilutions were plated onto Tryptic Soy Agar and incubated for 2 days at about 35 EC. Bacteria counts were performed after 0, 7, and 14 days.
as §2
The cinnamaldehyde and other preservative containing samples were prepared by mixing the appropriate amounts of the preservatives and the aforementioned anionic protein shampoo composition and heating the mixture to about 50 EC for about 15 minutes.
Synergism for the cinnamaldehyde/Glydant 2000™ solutions in Table 8 against S. aureus, P. aeruginosa, and E. coli was calculated by the method described in C. E. Kull et al., A Mixtures of Quaternary Ammonium Compounds and Long-chain Fatty Acids as Antifungal Agents@, Applied Microbiology, 9:538-541 (1961). The synergism value (QA/Qa+QB/Qb) in Table 7 was determined. […] Qa is the concentration of cinnamaldehyde alone (in percent by weight) required to yield 100% retardation of the bacteria. QB is the concentration of Glydant 2000™ (in percent by weight) in the mixture, which yielded 100% retardation of the bacteria. Qb is the concentration of Glydant 2000™ alone (in percent by weight) required to yield 100% retardation of the bacteria.
When the value of (QA/Qa+QB/Qb) is less than one, the mixture is synergistic. Values for (QA/Qa+QB/Qb) of 1 and greater than 1, represent an additive effect and an antagonistic effect, respectively.

[3] = test system: Candida albicans and Aspergillus niger; assay: Mixed fungal challenge of preserved anionic protein shampoo (Example 5); settings: 1.0% in shampoo
Protocol: Each anionic shampoo sample in Table 4 below was tested as follows. A standard mixed […] solution was prepared according to the following procedure. 2 agar […] of Candida albicans and 4 agar […] of Aspergillus niger were separately incubated at about 25 EC for about 48 hours and 7 days, respectively. Each slant was washed with 3 mL of sterile 0.85% saline solution, collected and macerated in a tissue grinder. Sufficient amounts of 0.85% saline solution were added to each slant to obtain a visual count under a microscope with a Neubauer Hemocytometer of each innoculum of C. albicans and A. niger. Equal volumes of each standardized innoculum of C. albicans and A. niger were mixed together to form the standardized mixed fungal solution. 40 g of each shampoo sample was inoculated with 0.4 mL of the standardized mixed fungal solution and mixed. 1 g of the mixture was added to a sterile 20×150 mm screw cap test tube. 9 mL of sterile D/E neutralizer broth was added to the test tube and mixed to form a 10^-1 dilution. Serial dilutions were prepared through to a 10^-6 dilution with phosphate buffered water. The serial dilutions were plated onto Sabourand dextrose agar and incubated 5 days at about 25 EC. […] The anionic protein shampoo composition is described in Example 4. The shampoo samples were prepared by mixing the appropriate amounts of the preservatives and the anionic protein shampoo composition and heating the mixture to about 50 EC for about 15 minutes.

[4] = test system: Staphylococcus aureus (ATCC #6538); assay: Minimum Inhibitory Concentration (MIC), autodilutor, nutrient broth, 96 well plates (Example 8); settings: 72 hours at 32 degree Celsius, approximately 10^6 cfu/g, visual turbidity
Protocol: The Minimum Inhibitory Concentration (MIC) of the preservative mixtures was tested. The MIC is the lowest concentration of an ingredient that will inhibit the growth of an organism. This study was conducted using the Hamilton Micro Lab AT Plus Autodilutor Liquid handling System. The programs for the auto-dilutor were based on Lonza's Standard Application Method SAPM#412-01-1. The Hamilton Autodilutor was used to dilute the starting concentrations of the preservative combination by 50% using nutrient broth in 96 well micro titer plates and also to inoculate the microorganism in the test samples. This preservatives tested were Isocil™ (a blend of methyl isothiazolinone and methyl-chloro-isothiazolinone), Benzocil™ (benzisothiazolinone) and Lonzagard™ (benzethonium chloride), all of which are available from Lonza Inc. of Fair Lawn, N.J., in various concentrations and combinations with cinnamaldehyde. Controls were also included in each test plate. […] Results were determined by checking for growth in the test samples versus the control wells on each plate (visual determination of turbidity in the wells). […] Synergism values for the Isocil™/cinnamaldehyde and Benzocil™/cinnamaldehyde combinations were calculated from the MIC values reported in Table 11 by the method described in Kull, supra, referred to above, and are set forth in Tables 12 and 13, below.

SMILES | bacteria count Day 0 [1] | bacteria count Day 7 [1] | bacteria count Day 14 [1] | S. aureus, P. aeruginosa, and E. coli Day 0 [2] | S. aureus, P. aeruginosa, and E. coli Day 7 [2] | S. aureus, P. aeruginosa, and E. coli Day 14 [2] | also measured
O=C1O[C@H]([C@H](O)CO)C([O-])=C1O.[Na+] [sodium erythorbate] | 1-3 × 10^6 cfu/g | >3 × 10^6 cfu/g | >3 × 10^6 cfu/g |  |  |  | bacteria count Day 28 [1]: >3 × 10^6 cfu/g
O=C([O-])c1ccccc1.[Na+] [sodium benzoate] | 1-3 × 10^6 cfu/g | 1 × 10^5 cfu/g | 7 × 10^5 cfu/g |  |  |  | bacteria count Day 28 [1]: <10 cfu/g
OCc1ccccc1 [Benzyl Alcohol, reference compound] |  |  |  | 3.0 × 10^7 cfu/g | 5.0 × 10^6 cfu/g | 5.3 × 10^6 cfu/g | Fungal Plate Count Day 0 ([3]; Day 0): 1.0 × 10^5 cfu/g; Fungal Plate Count Day 7 ([3]; Day 7): 6.0 × 10^3 cfu/g; Fungal Plate Count Day 14 ([3]; Day 14): 6.0 × 10^4 cfu/g
CC(C)=CCC/C(C)=C\CO [Nerol] |  |  |  | 3.0 × 10^7 cfu/g | 3.0 × 10^7 cfu/g | 3.0 × 10^7 cfu/g | 
CC(C)=CCC/C(C)=C/CO [Gerniol] |  |  |  | 3.0 × 10^7 cfu/g | 3.0 × 10^7 cfu/g | 3.0 × 10^7 cfu/g | 
C/C=C/C=C/C(=O)[O-].[K+] [potassium sorbate] | 1-3 × 10^6 cfu/g | 1 × 10^5 cfu/g | 6 × 10^4 cfu/g |  |  |  | 
C=CCc1ccc(O)c(OC)c1 [Eugenol] |  |  |  | 3.0 × 10^7 cfu/g | 3.0 × 10^7 cfu/g | 3.0 × 10^7 cfu/g | 
C=C(C)[C@H]1CC=C(C)CC1 [d-Limonene] |  |  |  | 3.0 × 10^7 cfu/g | 3.0 × 10^7 cfu/g | 3.0 × 10^7 cfu/g | 
O=c1[nH]sc2ccccc12 [Benzocil ™, benzisothiazolinone] |  |  |  |  |  |  | MIC for S. Aureus [4]: 9.375 ppm (active)
CC(C)=CCCC(C)=CC=O [Citral] |  |  |  | 3.0 × 10^7 cfu/g | 3.0 × 10^7 cfu/g | 3.0 × 10^7 cfu/g | 
